Source: ChEMBL document CHEMBL1145521, “Lenalidomide inhibits the malignant clone and up-regulates the SPARC gene mapping to the commonly deleted region in 5q- syndrome patients” (2007)
Calls of active or inactive are those of the source. No cut-off for these calls is given here.

Experiments:
[1] = Down-regulation of TUBB2 gene expression in healthy human erythroblasts after 7 days relative to control; type: functional
[2] = Down-regulation of HBB gene expression in erythroblasts from myelodysplastic syndrome del(5q) patient after 7 days relative to control; type: functional; details: Homo sapiens
[3] = Down-regulation of HBB gene expression in healthy human erythroblasts after 7 days relative to control; type: functional
[4] = Down-regulation of HBBP1 gene expression in erythroblasts from myelodysplastic syndrome del(5q) patient after 7 days relative to control; type: functional; details: Homo sapiens
[5] = Down-regulation of HBBP1 gene expression in healthy human erythroblasts after 7 days relative to control; type: functional
[6] = Down-regulation of SPTA1 gene expression in erythroblasts from myelodysplastic syndrome del(5q) patient after 7 days relative to control; type: functional; details: Homo sapiens
[7] = Down-regulation of HBG2 gene expression in erythroblasts from myelodysplastic syndrome del(5q) patient after 7 days relative to control; type: functional; details: Homo sapiens
[8] = Down-regulation of HBG2 gene expression in healthy human erythroblasts after 7 days relative to control; type: functional
[9] = Down-regulation of KLF1 gene expression in erythroblasts from myelodysplastic syndrome del(5q) patient after 7 days relative to control; type: functional; details: Homo sapiens
[10] = Down-regulation of KLF1 gene expression in healthy human erythroblasts after 7 days relative to control; type: functional
[11] = Down-regulation of GYPA gene expression in erythroblasts from myelodysplastic syndrome del(5q) patient after 7 days relative to control; type: functional; details: Homo sapiens
[12] = Down-regulation of GYPA gene expression in healthy human erythroblasts after 7 days relative to control; type: functional
[13] = Down-regulation of CXADR gene expression in erythroblasts from myelodysplastic syndrome del(5q) patient after 7 days relative to control; type: functional; details: Homo sapiens
[14] = Down-regulation of CXADR gene expression in healthy human erythroblasts after 7 days relative to control; type: functional
[15] = Down-regulation of GYPB gene expression in erythroblasts from myelodysplastic syndrome del(5q) patient after 7 days relative to control; type: functional; details: Homo sapiens
[16] = Down-regulation of GYPB gene expression in healthy human erythroblasts after 7 days relative to control; type: functional
[17] = Down-regulation of ALAS2 gene expression in erythroblasts from myelodysplastic syndrome del(5q) patient after 7 days relative to control; type: functional; details: Homo sapiens
[18] = Down-regulation of ALAS2 gene expression in healthy human erythroblasts after 7 days relative to control; type: functional
[19] = Down-regulation of GYPE gene expression in erythroblasts from myelodysplastic syndrome del(5q) patient after 7 days relative to control; type: functional; details: Homo sapiens
[20] = Down-regulation of GYPE gene expression in healthy human erythroblasts after 7 days relative to control; type: functional
[21] = Down-regulation of AMMECR1 gene expression in erythroblasts from myelodysplastic syndrome del(5q) patient after 7 days relative to control; type: functional; details: Homo sapiens
[22] = Down-regulation of AMMECR1 gene expression in healthy human erythroblasts after 7 days relative to control; type: functional
[23] = Down-regulation of THRB gene expression in erythroblasts from myelodysplastic syndrome del(5q) patient after 7 days relative to control; type: functional; details: Homo sapiens
[24] = Down-regulation of THRB gene expression in healthy human erythroblasts after 7 days relative to control; type: functional
[25] = Down-regulation of LRP11 gene expression in erythroblasts from myelodysplastic syndrome del(5q) patient after 7 days relative to control; type: functional; details: Homo sapiens
[26] = Down-regulation of LRP11 gene expression in healthy human erythroblasts after 7 days relative to control; type: functional
[27] = Down-regulation of SPTA1 gene expression in healthy human erythroblasts after 7 days relative to control; type: functional
[28] = Upregulation of CHI3L1 gene expression in healthy human erythroblasts after 7 days relative to control; type: functional
[29] = Upregulation of CHI3L1 gene expression in erythroblasts from myelodysplastic syndrome del(5q) patient after 7 days relative to control; type: functional; details: Homo sapiens
[30] = Upregulation of CXCL1 gene expression in erythroblasts from myelodysplastic syndrome del(5q) patient after 7 days relative to control; type: functional; details: Homo sapiens
[31] = Upregulation of CXCL1 gene expression in healthy human erythroblasts after 7 days relative to control; type: functional
[32] = Upregulation of TPBG gene expression in erythroblasts from myelodysplastic syndrome del(5q) patient after 7 days relative to control; type: functional; details: Homo sapiens
[33] = Upregulation of TPBG gene expression in healthy human erythroblasts after 7 days relative to control; type: functional
[34] = Upregulation of MAOA gene expression in erythroblasts from myelodysplastic syndrome del(5q) patient after 7 days relative to control; type: functional; details: Homo sapiens
[35] = Upregulation of MAOA gene expression in healthy human erythroblasts after 7 days relative to control; type: functional
[36] = Upregulation of PRG3 gene expression in erythroblasts from myelodysplastic syndrome del(5q) patient after 7 days relative to control; type: functional; details: Homo sapiens
[37] = Upregulation of RTN1 gene expression in erythroblasts from myelodysplastic syndrome del(5q) patient after 7 days relative to control; type: functional; details: Homo sapiens
[38] = Upregulation of RTN1 gene expression in healthy human erythroblasts after 7 days relative to control; type: functional
[39] = Upregulation of ANGPT2 gene expression in erythroblasts from myelodysplastic syndrome del(5q) patient after 7 days relative to control; type: functional; details: Homo sapiens
[40] = Upregulation of ANGPT2 gene expression in healthy human erythroblasts after 7 days relative to control; type: functional
[41] = Upregulation of CYP4F3 gene expression in erythroblasts from myelodysplastic syndrome del(5q) patient after 7 days relative to control; type: functional; details: Homo sapiens
[42] = Upregulation of CYP4F3 gene expression in healthy human erythroblasts after 7 days relative to control; type: functional
[43] = Upregulation of DSC2 gene expression in erythroblasts from myelodysplastic syndrome del(5q) patient after 7 days relative to control; type: functional; details: Homo sapiens
[44] = Upregulation of DSC2 gene expression in healthy human erythroblasts after 7 days relative to control; type: functional
[45] = Upregulation of PRG3 gene expression in healthy human erythroblasts after 7 days relative to control; type: functional
[46] = Upregulation of SEC14L5 gene expression in erythroblasts from myelodysplastic syndrome del(5q) patient after 7 days relative to control; type: functional; details: Homo sapiens
[47] = Upregulation of SEC14L5 gene expression in healthy human erythroblasts after 7 days relative to control; type: functional
[48] = Down-regulation of HBA2 gene expression in erythroblasts from myelodysplastic syndrome del(5q) patient after 7 days relative to control; type: functional; details: Homo sapiens
[49] = Down-regulation of HBA2 gene expression in healthy human erythroblasts after 7 days relative to control; type: functional
[50] = Down-regulation of HBA1 gene expression in erythroblasts from myelodysplastic syndrome del(5q) patient after 7 days relative to control; type: functional; details: Homo sapiens
[51] = Down-regulation of HBA1 gene expression in healthy human erythroblasts after 7 days relative to control; type: functional
[52] = Down-regulation of TUBB2 gene expression in erythroblasts from myelodysplastic syndrome del(5q) patient after 7 days relative to control; type: functional; details: Homo sapiens
Homo sapiens [53] = organism: Homo sapiens; assay: Inhibition of cell proliferation of human bone marrow mononuclear cells assessed as [3H]thymidine incorporation upto 500 uM after 4 days; type: functional
Homo sapiens [54] = organism: Homo sapiens; assay: Inhibition of cell proliferation of CD34+ progenitor cells from myelodysplastic syndrome del(5q) patient after 14 days; type: functional
Homo sapiens [55] = organism: Homo sapiens; assay: Growth inhibition of CD34+ progenitor cells from non-del(5q) myelodysplastic syndrome patient after 14 days; type: functional
[56] = Growth inhibition of CD34- mononuclear cells from myelodysplastic syndrome del(5q-) patient by FISH after 7 days; type: functional, Homo sapiens
[57] = Decrease in erythroid differentiation of CD34+ progenitor cells from myelodysplastic syndrome del(5q) patient assessed as CD36 expression after 14 days; type: functional; details: Homo sapiens
[58] = Decrease in erythroid differentiation of CD34+ progenitor cells from myelodysplastic syndrome del(5q) patient assessed as glycophorin A expression after 14 days; type: functional; details: Homo sapiens
[59] = Decrease in myeloid differentiation of CD34+ progenitor cells from myelodysplastic syndrome del(5q) patient assessed as CD33 expression after 14 days; type: functional; details: Homo sapiens
[60] = Upregulation of INHBA gene expression in erythroblasts from myelodysplastic syndrome del(5q) patient after 7 days relative to control; type: functional; details: Homo sapiens
[61] = Upregulation of INHBA gene expression in healthy human erythroblasts after 7 days relative to control; type: functional
[62] = Upregulation of PPIC gene expression in healthy human erythroblasts after 7 days relative to control; type: functional
[63] = Upregulation of SPARC gene expression in erythroblasts from myelodysplastic syndrome del(5q) patient after 7 days relative to control; type: functional; details: Homo sapiens
[64] = Upregulation of PPIC gene expression in erythroblasts from myelodysplastic syndrome del(5q) patient after 7 days relative to control; type: functional; details: Homo sapiens
[65] = Upregulation of VSIG4 gene expression in healthy human erythroblasts after 7 days relative to control; type: functional
[66] = Upregulation of DEFA1 gene expression in healthy human erythroblasts after 7 days relative to control; type: functional
[67] = Upregulation of VSIG4 gene expression in erythroblasts from myelodysplastic syndrome del(5q) patient after 7 days relative to control; type: functional; details: Homo sapiens
[68] = Upregulation of DEFA1 gene expression in erythroblasts from myelodysplastic syndrome del(5q) patient after 7 days relative to control; type: functional; details: Homo sapiens
[69] = Upregulation of SPARC gene expression in healthy human erythroblasts after 7 days relative to control; type: functional
[70] = Increase in SPARC gene expression in erythroid progenitor cells from non-del(5q) myelodysplastic syndrome patient by RT-PCR after 7 days relative to control; type: functional, Homo sapiens
[71] = Increase in activin A gene expression in erythroid progenitor cells from non-del(5q) myelodysplastic syndrome patient by RT-PCR after 7 days relative to control; type: functional, Homo sapiens
[72] = Increase in SPARC gene expression in CD34- mononuclear cells from del(5q) myelodysplastic syndrome patient by RT-PCR after 2 days relative to control
[73] = Increase in SPARC gene expression in CD34- mononuclear cells from del(5q) myelodysplastic syndrome patient by RT-PCR after 7 days relative to control
[74] = Increase in activin A gene expression in CD34- mononuclear cells from del(5q) myelodysplastic syndrome patient by RT-PCR after 2 days relative to control
[75] = Increase in activin A gene expression in CD34- mononuclear cells from del(5q) myelodysplastic syndrome patient by RT-PCR after 7 days relative to control

Nc1cccc2c1CN(C1CCC(=O)NC1=O)C2=O (stereo not given) [LENALIDOMIDE]
Fold change [1]: 13.9
Fold change [2]: 7.7
Fold change [3]: 3.4
Fold change [4]: 4.9
Fold change [5]: 2.8
Fold change [6]: 4.5
Fold change [7]: -4.4
Fold change [8]: -1.4
Fold change [9]: 3.7
Fold change [10]: 3.4
Fold change [11]: 3.7
Fold change [12]: 9.1
Fold change [13]: 3.6
Fold change [14]: 5.9
Fold change [15]: 3.6
Fold change [16]: 2.9
Fold change [17]: 3.3
Fold change [18]: 7.6
Fold change [19]: 3
Fold change [20]: 2.2
Fold change [21]: 2.9
Fold change [22]: -3.2
Fold change [23]: 2.8
Fold change [24]: 2
Fold change [25]: 2.4
Fold change [26]: 4.8
Fold change [27]: 4.8
Fold change [28]: 10.3
Fold change [29]: 6.1
Fold change [30]: 4.1
Fold change [31]: 2.9
Fold change [32]: 4.1
Fold change [33]: 5.4
Fold change [34]: 3.9
Fold change [35]: 2.1
Fold change [36]: 2.9
Fold change [37]: 3.5
Fold change [38]: 5.4
Fold change [39]: 3.3
Fold change [40]: 1.9
Fold change [41]: 3.1
Fold change [42]: 3.5
Fold change [43]: 3
Fold change [44]: 3.6
Fold change [45]: 1.7
Fold change [46]: 2.8
Fold change [47]: 3.6
Fold change [48]: 11
Fold change [49]: 9.7
Fold change [50]: 8.5
Fold change [51]: 11.1
Fold change [52]: 8.2
Activity (Homo sapiens [53]): inactive
Activity (Homo sapiens [54]): Active
Activity (Homo sapiens [55]): Active
growth inhibition (GI) [56]: 65%
Activity [57]: Active
Activity [58]: Active
Activity [59]: Active
Fold change [60]: 4.9
Fold change [61]: 2.5
Fold change [62]: 10.9
Fold change [63]: 4.1
Fold change [64]: 5.2
Fold change [65]: 9.5
Fold change [66]: 16.3
Fold change [67]: 9.5
Fold change [68]: 8.9
Fold change [69]: 4.8
Fold change [70]: 9.3
Fold change [71]: 12.6
Fold change [72]: 8.1
Fold change [73]: 5.8
Fold change [74]: 2.5
Fold change [75]: 2.6
